Source: patent EP2533787B1, “USE OF ISORHAMNETIN TRIGLYCOSIDES” (Dr. Willmar Schwabe GmbH & Co. KG, priority 2010, dated 2011)
Marks after values point to notes of the source that are not given here.

Experiments:
Mäuse = experiment: Light/dark box test ("Hell-Dunkel-Box"), frequency of compartment changes; format: in vivo; details: for Anzahl der Feldwechsel im Vergleich zur Vehikel-Kontrolle / Wechselhäufigkeit in der "Hell-Dunkel-Box": single dose; for Anzahl der Feldwechsel im Vergleich zur Vehikel-Kontrolle: tested after 60 min, observed 3 min; for Erkundungsverhalten ("exploratory behavior"): oral application in mice; for Erkundungsverhalten ("exploratory behavior") / Wechselhäufigkeit in der "Hell-Dunkel-Box": result in words; for Wechselhäufigkeit in der "Hell-Dunkel-Box": oral
Source text: Die aktivitätssteigernde Wirkung der Isorhamnetintriglycoside 2, 3 und 4 wurde an Versuchstieren im sogenannten "Hell-Dunkel-Box" System getestet.
Das Prinzip des verwendeten Testsystems beruht darauf, dass Mäuse einem Verhaltensparadigma ausgesetzt werden, das zwei gegensätzliche Verhaltensmuster aktiviert. Die Box besteht aus zwei Kompartimenten von denen ein kleinerer dunkler Teil von einem hellen und größeren Teil durch eine Wand getrennt wird. In der Mitte der Wand befindet sich eine kleine Öffnung, die es dem Versuchstier ermöglicht zwischen den beiden Kompartimenten zu wechseln. Der Versuch beginnt mit dem Einsetzen der Maus in das helle Feld. Das angeborene Dunkelpräferenzverhalten führt dazu, dass die Tiere nach einer kurzen Latenzzeit in das dunkle -sichere Kompartiment wechseln. Nach kurzer Zeit führt aber das ebenso stark ausgeprägte Neugierverhalten (Erkundungsverhalten) dazu, dass die Mäuse wieder in das helle Kompartiment wechseln. Somit stehen zwei angeborene Verhaltensweisen, nämlich die Dunkelpräferenz (Vermutlich als Schutz vor Beutegreifern) und das Erkundungsverhalten (wichtig für Nahrungssuche, Partnersuche) im Konflikt, die für eine Dauer von 3 Minuten aufgezeichnet werden. Arzneimittel, die beruhigende pharmakologische Effekte haben, führen zu einer Verminderung der Wechselhäufigkeit zwischen den Kompartimenten, während Arzneimittel mit stimulierenden Aktivitäten die Wechselhäufigkeit steigern. Die Wechselhäufigkeit ist somit ein Index für aktivitätsgesteuertes Erkundungsverhalten als Zeichen einer Habituation (M. Bourin, and M. Hascoet, "The mouse light/dark box test", Eur. J. Pharmacol. 463 (2003) 55 - 65). Die Versuchsanordnung betrachtet somit Verhaltensparameter, die geeignet sind das Maß an Aktivität zu messen und zu bewerten.
Um die aktivitätssteigernden Effekte der Isorhamnetintriglycoside 2, 3 und 4 zu testen wurden Mäuse einmalig mit verschieden hohen Dosierungen der Flavone behandelt. Zum Vergleich wurden einige Tiere entweder mit dem sedierenden Benzodiazepin Lorazepam oder mit dem aktivitätssteigernden Präparat Methamphetamin oder mit einer wirkungslosen Kontrolllösung behandelt. Nach 60 Minuten wurden die Tiere in das helle Kompartiment der "Hell-Dunkel-Box" gesetzt und über einen Zeitraum von 3 Minuten beobachtet. Als Maß der Aktivität wurde die Häufigkeit der Feldwechsel gemessen. […] Tabelle 2: Wirkung der Isorhamnetintriglycoside 2 und 3 im Vergleich zum Anxiolytikum Lorazepam. Gemessen wird die Anzahl der Feldwechsel im Vergleich zur Vehikel-Kontrolle.

[1] = tested on: Hippocampus Schnittpräparaten; experiment: Long-term potentiation (LTP) in hippocampal slice preparations, POP spikes; format: cell-based, Wistar-Ratten; details: result in words; for Langzeitpotenzierung: rat brain slice preparations, compared with buffer solution; for Reizantwort nach LTP-Stimulation: size of POP spikes after repeated LTP induction, compared with solvent
Source text: Um den Einfluss der Isorhamnetintriglycoside 2 und 4 auf mentale Funktionen zu testen wurde die Induktion der sogenannten Langzeitpotenzierung (LTP) verwendet. In Hirnschnitt-Präparaten von Wirbeltieren dient LTP als zelluläres Modell für Lernvorgänge, vor allem im Arbeitsgedächtnis (T. V. P. Bliss, and G. L. Collingridge, "A synaptic model of memory: Long-term potentiation in the hippocampus", Nature 361 (1993) 31 - 39). Durch wiederholte Reizung von Neuronen wird eine langandauernde Verstärkung der synaptischen Übertragung induziert, die durch eine Stabilisierung oder Aktivierung sogenannter ruhender Synapsen ("silent synapses) zu einer Neubildung von Verschaltungsmustern zustande kommt (Lernen). Die am besten untersuchte Region des Gehirns für LTP Messungen ist der Hippocampus, der für die Verarbeitung von Lernvorgängen eine zentrale Rolle spielt, allerdings findet LTP auch in anderen Hirnregionen statt (G. A. Kerchner, and R.A. Nicoll, "Silent synapses and the emergence of a postsynaptic mechanism for LTP", Nat. Rev. Neurosci. 9 (2008) 813 - 825). Bei Ratten und anderen Nagern ist die Langzeitpotenzierung insbesondere mit der Ausbildung des räumlichen Lernens assoziiert (J. R. Whitlock, A. J. Heynen, M. G. Shuler, and M. F. Bear, "Learning induced long-term potentiation in the hippocampus", Science 313 (2006) 1093 - 1097).
Die Experimente wurden an Hippocampus Schnittpräparaten von 8-12 Wochen alten weiblichen Wistar-Ratten durchgeführt. Die Hirnschnitte werden bei 35°C in einer Messkammer gehalten und mit einer Nährlösung perfundiert. Glasmikroelektroden werden im dendritischen Bereich des Stratum pyramidale (CA1) platziert um "Population Spikes" (POP-Spikes) zu registrieren. Die Schaffer-Kollateralen werden mit bipolaren Reizelektroden aus Platin-Draht stimuliert und die resultierenden Aktionspotentiale (POP Spikes) gemessen. Der eigentliche Versuch beginnt nach einer Äquilibrierungszeit von 60 Minuten in welcher die Hirnschnitte nicht manipuliert werden. Anschließend werden die Elektroden platziert und begonnen die Schaffer Kollateralen mit steigender Stromstärke zu stimulieren. Nach Erreichen der maximalen Reizantwort wird die Stromstärke so reduziert, dass nur noch 50% der maximal möglichen Reizstärke erreicht werden. Dadurch kann im späteren Versuch überprüft werden ob eine Verstärkung der Reizantwort möglich ist. Anschließend wird alle 10 Sekunden mit der submaximalen Reizstärke stimuliert und die POP Spikes registriert. Die erste LTP-Induktion beginnt mit einer repetitiven Reizung (100 Hz für 1 Sekunde). Der 1. Stimulation folgt die erneute Einzelstimulation (alle 10 Sekunden ein submaximaler Reiz) für zehn Minuten. Diese erste Stimulation dient der Überprüfung, ob der Hirnschnitt eine Reizantwort auf die LTP-Induktion zeigt. […]

CNC(C)Cc1ccccc1 (centres unmarked) [Methamphetamin]
Wechsel Anzahl (Mäuse; 0,3 mg/kg peroral): 7,5 ± 2,1 | Wechsel Prozent der Kontrolle (Mäuse; 0,3 mg/kg peroral): +7% | Wechsel Anzahl (Mäuse; 1,0 mg/kg peroral): 10,6 ± 1,6 | Wechsel Prozent der Kontrolle (Mäuse; 1,0 mg/kg peroral): +51% | Wechsel Anzahl (Mäuse; 3,0 mg/kg peroral): 10,9 ± 3,3 | Wechsel Prozent der Kontrolle (Mäuse; 3,0 mg/kg peroral): +56% | Wechsel Anzahl (Mäuse; 10,0 mg/kg peroral): 0,6 ± 1,2 | Wechsel Prozent der Kontrolle (Mäuse; 10,0 mg/kg peroral): -91%

COc1cc(-c2oc3cc(O)cc(O)c3c(=O)c2O[C@@H]2O[C@H](CO[C@@H]3O[C@@H](C)[C@H](O)[C@@H](O)[C@H]3O)[C@@H](O)[C@H](O)[C@H]2O[C@@H]2OC[C@@H](O)[C@H](O)[C@H]2O)ccc1O [Verbindung 4, 3-[(O-6-Deoxy-α-L-mannopyranosyl-(1→6)-O-[ß-D-xylopyranosyl-(1→2)]-ß-D-glucopyranosyl)oxy]-5,7-dihydroxy-2-(4-hydroxy-3-methoxyphenyl)-4H-1-benzopyran-4-on]
Langzeitpotenzierung [1]: deutlich gesteigert | Reizantwort nach LTP-Stimulation [1]: deutliche Steigerung der Reizantwort

COc1cc(-c2oc3cc(O)cc(O)c3c(=O)c2O[C@@H]2O[C@H](CO[C@@H]3O[C@@H](C)[C@H](O[C@@H]4O[C@@H](C)[C@H](O)[C@@H](O)[C@H]4O)[C@@H](O)[C@H]3O)[C@@H](O)[C@H](O)[C@H]2O)ccc1O [Verbindung 3, 3-[(O-6-Deoxy-α-L-mannopyranosyl-(1→4)-O-6-deoxy-α-L-mannopyranosyl-(1→6)-ß-D-glucopyranosyl)oxy]-5,7-dihydroxy-2-(4-hydroxy-3-methoxyphenyl)-4H-1-benzopyran-4-on]
Anzahl der Feldwechsel im Vergleich zur Vehikel-Kontrolle (Mäuse; 3 mg/kg po): +15 % der Kontrolle | Erkundungsverhalten ("exploratory behavior") (Mäuse): deutlichen, dosisabhängigen und statistisch signifikantem Ansteigen des Erkundungsverhaltens

COc1cc(-c2oc3cc(O)cc(O)c3c(=O)c2O[C@@H]2O[C@H](CO[C@@H]3O[C@@H](C)[C@H](O)[C@@H](O)[C@H]3O)[C@H](O)[C@H](O)[C@H]2O[C@@H]2OC[C@@H](O)[C@H](O)[C@H]2O)ccc1O [Verbindung 2, 3-[(O-6-Deoxy-α-L-mannopyranosyl-(1→6)-O-[ß-D-xylopyranosyl-(1→2)]-ß-D-galactopyranosyl)oxy]-5,7-dihydroxy-2-(4-hydroxy-3-methoxy-phenyl)-4H-1-benzopyran-4-on]
Langzeitpotenzierung [1]: deutlich gesteigert | Reizantwort nach LTP-Stimulation [1]: deutliche Steigerung der Reizantwort | Anzahl der Feldwechsel im Vergleich zur Vehikel-Kontrolle (Mäuse; 10 mg/kg po): +100 # % der Kontrolle | Anzahl der Feldwechsel im Vergleich zur Vehikel-Kontrolle (Mäuse; 30 mg/kg po): +38 % der Kontrolle | Erkundungsverhalten ("exploratory behavior") (Mäuse): deutlichen, dosisabhängigen und statistisch signifikantem Ansteigen des Erkundungsverhaltens | Wechselhäufigkeit in der "Hell-Dunkel-Box" (Mäuse; 30 mg/kg): geht dieser Effekt verloren | Wechselhäufigkeit in der "Hell-Dunkel-Box" (Mäuse; 3 und 10 mg/kg): deutlichen, signifikanten Steigerung der Wechselhäufigkeit

O=C1Nc2ccc(Cl)cc2C(c2ccccc2Cl)=NC1O (centres unmarked) [Lorazepam]
Anzahl der Feldwechsel im Vergleich zur Vehikel-Kontrolle (Mäuse; 0,3 mg/kg po): -46 % der Kontrolle
